Measurements as given in ChEMBL document CHEMBL1201862, “PubChem BioAssay data set” (2004).
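Five concentrations, 48 hours, 96-well plates. GI50 marks 50% less growth.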 Calls of active or inactive are those of the source. Cut-off read from the data, not from the text of the source: active = GI50 up to about 1.1 µM and inactive = higher.

Key:
Test in all cases: growth of human tumour cells (NCI), 48 h
MDA-MB-231 = test system: MDA-MB-231
RXF 393 = test system: RXF 393
Malme-3M = test system: Malme-3M
NCI-H522 = test system: NCI-H522
NCI/ADR-RES = test system: NCI/ADR-RES
SK-MEL-28 = test system: SK-MEL-28
CCRF-CEM = test system: CCRF-CEM
HL-60 = test system: HL-60
COLO 205 = test system: COLO 205
MDA-N = test system: MDA-N
HOP-92 = test system: HOP-92
A549 = test system: A549
MCF7 = test system: MCF7
NCI-H226 = test system: NCI-H226
EKVX = test system: EKVX
UACC-62 = test system: UACC-62
RPMI-8226 = test system: RPMI-8226
KM12 = test system: KM12
CAKI-1 = test system: CAKI-1
SNB-75 = test system: SNB-75
HCC 2998 = test system: HCC 2998
NCI-H460 = test system: NCI-H460
HCT-116 = test system: HCT-116
SW-620 = test system: SW-620
MOLT-4 = test system: MOLT-4
786-0 = test system: 786-0
TK-10 = test system: TK-10
OVCAR-3 = test system: OVCAR-3
NCI-H23 = test system: NCI-H23
OVCAR-4 = test system: OVCAR-4
BT-549 = test system: BT-549
MDA-MB-435 = test system: MDA-MB-435
SF-268 = test system: SF-268
K562 = test system: K562
A498 = test system: A498
HOP-62 = test system: HOP-62
IGROV-1 = test system: IGROV-1
OVCAR-5 = test system: OVCAR-5
SF-295 = test system: SF-295
SN12C = test system: SN12C
M14 = test system: M14
UACC-257 = test system: UACC-257
OVCAR-8 = test system: OVCAR-8
SF-539 = test system: SF-539
SR = test system: SR
DU-145 = test system: DU-145
SNB-19 = test system: SNB-19
Hs-578T = test system: Hs-578T
LOX IMVI = test system: LOX IMVI
SK-MEL-5 = test system: SK-MEL-5
T47D = test system: T47D
U-251 = test system: U-251
HT-29 = test system: HT-29
HCT-15 = test system: HCT-15
PC-3 = test system: PC-3
ACHN = test system: ACHN
SK-OV-3 = test system: SK-OV-3
UO-31 = test system: UO-31
SK-MEL-2 = test system: SK-MEL-2

Cc1cc(S(=O)(=O)Nc2nc3cccnc3[nH]2)c(S)cc1Cl
GI50 (MDA-MB-231): 45.3 µM (inactive) | GI50 (RXF 393): > 100 µM (inactive) | GI50 (Malme-3M): > 100 µM (inactive) | GI50 (NCI-H522): 70.5 µM (inactive) | GI50 (NCI/ADR-RES): > 100 µM (inactive) | GI50 (SK-MEL-28): > 100 µM (inactive) | GI50 (CCRF-CEM): > 100 µM (inactive) | GI50 (HL-60): > 100 µM (inactive) | GI50 (COLO 205): > 100 µM (inactive) | GI50 (MDA-N): > 100 µM (inactive) | GI50 (HOP-92): > 100 µM (inactive) | GI50 (A549): 75 µM (inactive) | GI50 (MCF7): > 100 µM (inactive) | GI50 (NCI-H226): 52.2 µM (inactive) | GI50 (EKVX): > 100 µM (inactive) | GI50 (UACC-62): 85.1 µM (inactive) | GI50 (RPMI-8226): > 100 µM (inactive) | GI50 (KM12): > 100 µM (inactive) | GI50 (CAKI-1): > 100 µM (inactive) | GI50 (SNB-75): > 100 µM (inactive) | GI50 (HCC 2998): > 100 µM (inactive) | GI50 (NCI-H460): 73.5 µM (inactive) | GI50 (HCT-116): > 100 µM (inactive) | GI50 (SW-620): > 100 µM (inactive) | GI50 (MOLT-4): > 100 µM (inactive) | GI50 (786-0): > 100 µM (inactive) | GI50 (TK-10): > 100 µM (inactive) | GI50 (OVCAR-3): > 100 µM (inactive) | GI50 (NCI-H23): 97.5 µM (inactive) | GI50 (OVCAR-4): 79.4 µM (inactive) | GI50 (BT-549): > 100 µM (inactive) | GI50 (MDA-MB-435): > 100 µM (inactive) | GI50 (SF-268): 79.1 µM (inactive) | GI50 (K562): > 100 µM (inactive) | GI50 (A498): > 100 µM (inactive) | GI50 (HOP-62): > 100 µM (inactive) | GI50 (IGROV-1): > 100 µM (inactive) | GI50 (OVCAR-5): > 100 µM (inactive) | GI50 (SF-295): 58.1 µM (inactive) | GI50 (SN12C): > 100 µM (inactive) | GI50 (M14): > 100 µM (inactive) | GI50 (UACC-257): > 100 µM (inactive) | GI50 (OVCAR-8): > 100 µM (inactive) | GI50 (SF-539): > 100 µM (inactive) | GI50 (SR): > 100 µM (inactive) | GI50 (DU-145): > 100 µM (inactive) | GI50 (SNB-19): 77.8 µM (inactive) | GI50 (Hs-578T): 74 µM (inactive) | GI50 (LOX IMVI): 83 µM (inactive) | GI50 (SK-MEL-5): 71.9 µM (inactive) | GI50 (T47D): 46.8 µM (inactive) | GI50 (U-251): 63.2 µM (inactive) | GI50 (HT-29): > 100 µM (inactive) | GI50 (HCT-15): 91 µM | GI50 (PC-3): 92.3 µM (inactive) | GI50 (ACHN): > 100 µM (inactive) | GI50 (SK-OV-3): > 100 µM (inactive)

COc1cc2cc(C(=O)N3CC(CCl)c4c3cc(NCCN)c3ccccc43)[nH]c2c(OC)c1OC (stereo not drawn)
GI50 (MDA-MB-231): < 0.01 µM (active) | GI50 (RXF 393): < 0.01 µM (active) | GI50 (UO-31): < 0.01 µM (active) | GI50 (Malme-3M): < 0.01 µM (active) | GI50 (NCI-H522): < 0.01 µM (active) | GI50 (NCI/ADR-RES): < 0.01 µM (active) | GI50 (SK-MEL-28): 0.0134 µM (active) | GI50 (COLO 205): 0.0112 µM (active) | GI50 (MDA-N): < 0.0105 µM (active) | GI50 (HOP-92): < 0.01 µM (active) | GI50 (A549): < 0.01 µM (active) | GI50 (MCF7): < 0.01 µM (active) | GI50 (NCI-H226): 0.0117 µM (active) | GI50 (EKVX): < 0.0126 µM (active) | GI50 (UACC-62): < 0.01 µM (active) | GI50 (RPMI-8226): < 0.01 µM (active) | GI50 (KM12): < 0.01 µM (active) | GI50 (CAKI-1): < 0.01 µM (active) | GI50 (SNB-75): 0.0102 µM (active) | GI50 (HCC 2998): < 0.01 µM (active) | GI50 (NCI-H460): < 0.01 µM (active) | GI50 (HCT-116): < 0.01 µM (active) | GI50 (SW-620): < 0.01 µM (active) | GI50 (MOLT-4): < 0.01 µM (active) | GI50 (786-0): < 0.01 µM (active) | GI50 (TK-10): < 0.01 µM (active) | GI50 (OVCAR-3): 0.0123 µM (active) | GI50 (NCI-H23): < 0.01 µM (active) | GI50 (OVCAR-4): 0.0116 µM (active) | GI50 (BT-549): 0.0333 µM (active) | GI50 (MDA-MB-435): < 0.01 µM (active) | GI50 (SF-268): < 0.01 µM (active) | GI50 (K562): < 0.01 µM (active) | GI50 (A498): < 0.01 µM (active) | GI50 (HOP-62): < 0.01 µM (active) | GI50 (IGROV-1): < 0.01 µM (active) | GI50 (OVCAR-5): < 0.01 µM (active) | GI50 (SF-295): < 0.01 µM (active) | GI50 (SN12C): < 0.01 µM (active) | GI50 (M14): < 0.01 µM (active) | GI50 (UACC-257): 0.0105 µM (active) | GI50 (OVCAR-8): < 0.01 µM (active) | GI50 (SF-539): < 0.01 µM (active) | GI50 (SR): < 0.01 µM (active) | GI50 (DU-145): < 0.01 µM (active) | GI50 (SNB-19): < 0.01 µM (active) | GI50 (Hs-578T): < 0.01 µM (active) | GI50 (LOX IMVI): < 0.01 µM (active) | GI50 (SK-MEL-5): < 0.01 µM (active) | GI50 (T47D): < 0.01 µM (active) | GI50 (U-251): < 0.01 µM (active) | GI50 (HCT-15): 0.0105 µM | GI50 (PC-3): < 0.01 µM (active) | GI50 (ACHN): < 0.01 µM (active) | GI50 (SK-MEL-2): < 0.01 µM (active) | GI50 (SK-OV-3): < 0.0189 µM (active)
